Columns and labels:
Type in all cases: cell-based, human
[1] = tested on: PC-3 prostate cancer cells; assay: In vitro cytotoxicity against PC-3 prostate cancer cells; settings: PC-3 cells; for IC50: five days
Procedure: (§1) The half maximal inhibitory concentration (IC50) is a measure of the effectiveness of a substance in inhibiting a specific biological or biochemical function. It is commonly used as a measure of antagonist drug potency.
Cell cultures were maintained in 5% carbon dioxide at a temperature of 37° C. […] Cell numbers were counted with a cell viability analyzer (Beckman-Coulter). […] A preliminary dose response curve was prepared from the collected data by means well known to those of ordinary skill in the art.
(§2) The six different concentrations fell within a selected linear concentration range determined by reference to the preliminary dose response curve and efforts to estimate the concentration at which 50% of the cell growth would be inhibited. The selected six different concentrations were used to further fill out the dose response curve to pinpoint a more exact IC50 value.

[2] = tested on: DU-145 prostate cancer cells; assay: In vitro cytotoxicity against DU-145 prostate cancer cells; settings: DU-145 cells; for IC50: five days
Procedure: as §1
Cell numbers were counted with a cell viability analyzer (Beckman-Coulter).
(§3) A preliminary dose response curve was prepared from the collected data by means well known to those of ordinary skill in the art.
as §2

[3] = tested on: HeLa cervical cancer cells; assay: HeLa cell viability after treatment with analog (cell count, cell viability analyzer)
Procedure: Cell numbers were counted with a cell viability analyzer (Beckman-Coulter). The ratio of drug treated viable cell numbers to control vehicle (DMSO) treated viable cell numbers was defined as percentage viability. […] Compound nos.
The HeLa cells used in the experiments summarized by Table 5 were cultured in RPMI-1640 medium supplemented with 10% FBS, 4 mM glutamine, 1 mM sodium pyruvate, 100 IU/mL penicillin, 100 ug/mL streptomycin and 0.25 ug/mL amphotericin. The HeLa cells were plated in 24-well plates at a density of 20,000 cells in each well in 10% FBS RPMI-1640. […] Cell numbers were counted with a cell viability analyzer (Beckman-Coulter). […]

[4] = tested on: HeLa cervical cancer cells; assay: In vitro cytotoxicity against HeLa cervical cancer cells; settings: for IC50: three days
Procedure: as §1
Cell numbers were counted with a cell viability analyzer (Beckman-Coulter). The ratio of drug treated viable cell numbers to vehicle treated viable cell numbers was defined as percentage viability.
as §3, §2

[5] = 1 μM, three days, relative to DMSO vehicle
[6] = 10 μM, three days, relative to DMSO vehicle
[7] = Homo sapiens, HeLa, 72 h, read-out: HeLa Cell viability after treatment with analog (% viability)

SMILES | IC50 [1] [nM] | IC50 [2] [µM] | HeLa Cell viability after treatment with analog (% viability) [3, 5] [%] | HeLa Cell viability after treatment with analog (% viability) [3, 6] [%] | IC50 [4] [nM] | HeLa Cell viability after treatment with analog (% viability) ([3]; 10 µM) [%] | IC50 (curcumin)/IC50 (analog) [1] | IC50 (curcumin)/IC50 (analog) [2] | IC50 (curcumin)/IC50 (analog) [4] | viability at 1 µM [3, 7] [%] | viability at 10 µM [3, 7] [%]
CC(C)n1ccnc1C=C1CCCC(=Cc2nccn2C(C)C)C1=O [Compound 10] | 160 | 0.1 | 114.9 | 85.1 |  |  |  |  |  |  | 
O=C(/C=C/c1nccs1)/C=C/c1nccs1 [Compound 24] | 68 | 0.055 | 68 | 19.2 |  |  |  |  |  |  | 
Cc1cc(/C=C2\CCC/C(=C\c3cc(C)on3)C2=O)no1 [Compound 8, (2E,6E)-2,6-Bis((5-methylisoxazol-3-yl)methylene)cyclohexanone] | 140 | 0.034 |  |  | 205 | 12.8 |  |  |  |  | 
CN1CC(=Cc2nccs2)C(=O)C(=Cc2nccs2)C1 [Compound 5] | 420 | 0.046 | 51.7 | 21.6 |  |  | 4.7 |  |  |  | 
CCC(C)n1ccnc1C=C1CCCC(=Cc2nccn2C(C)CC)C1=O (stereo not shown) [Compound 11] | 830 | 0.25 | 100 | 100 |  |  | 2 |  |  |  | 
CN1CC(=Cc2ccnn2C)C(=O)C(=Cc2ccnn2C)C1 [Compound 4] | 1020 | 1.64 | 107.1 | 67.4 |  |  | 1.9 | 0.18 |  |  | 
Cn1cc(C=C2CCCC(=Cc3cnn(C)c3)C2=O)cn1 [Compound 13] | 130000 | 90 | 97 | 100 |  |  | 0.015 | 0.003 |  |  | 
Cc1nc(C=C2CCCC(=Cc3coc(C)n3)C2=O)co1 [Compound 17] | 1970 | 1.65 | 100 | 59.5 |  |  | 1 | 0.18 |  |  | 
CCC(C)n1ccnc1C=C1CN(C)CC(=Cc2nccn2C(C)CC)C1=O (stereo not shown) [Compound 2] | 6630 | 0.01 | 111.1 | 95.9 |  |  |  |  |  |  | 
Cc1cc(/C=C2\CCC/C(=C\c3cc(C)on3)C2=O)no1 [Compound 18, (2E,6E)-2,6-Bis((5-methylisoxazol-3-yl)methylene)cyclohexanone] | 71 | 0.07 |  |  | 552 |  |  |  | 19 | 32 | 15.9
O=C(/C=C/c1cocn1)/C=C/c1cocn1 [Compound 37] |  |  | 72.9 |  |  |  |  |  |  |  | 
CC(C)n1ccnc1C=C1CN(C)CC(=Cc2nccn2C(C)C)C1=O [Compound 1] | 110 | 0.14 | 126.94 | 118.5 |  |  | 18 |  |  |  | 
Cn1cc(/C=C/C(=O)/C=C/c2cnn(C)c2)cn1 [Compound 38] |  |  | 92.8 |  |  |  |  |  |  |  | 
Cc1csc(/C=C/C(=O)/C=C/c2nc(C)cs2)n1 [Compound 31] |  |  | 52 |  |  |  |  |  |  |  | 
O=C1C(=Cc2nccs2)CCCC1=Cc1nccs1 [Compound 15] | 110 | 0.12 | 78 | 9.7 |  |  | 18 |  |  |  | 
CCCC(C)n1ccnc1/C=C/C(=O)/C=C/c1nccn1C(C)CCC (stereo not shown) [Compound 34] |  |  | 7.7 |  | 150 |  |  |  |  |  | 
Cc1nc(C=C2CN(C)CC(=Cc3coc(C)n3)C2=O)co1 [Compound 7] | 310 | 0.076 | 59.5 | 59.5 |  |  | 6.4 |  |  |  | 
Cc1cc(/C=C/C(=O)/C=C/c2cc(C)on2)no1 [Compound 27] | 250 | 0.042 | 48 | 15.9 | 296 |  | 7.9 |  |  |  | 
Cn1nccc1/C=C/C(=O)/C=C/c1ccnn1C [Compound 23] | 1900 | 0.16 | 59 | 82.6 |  |  |  |  |  |  | 

SMILES | IC50 [1] [nM] | IC50 [2] [µM] | HeLa Cell viability after treatment with analog (% viability) [3, 5] [%] | HeLa Cell viability after treatment with analog (% viability) [3, 6] [%] | IC50 [4] [nM] | HeLa Cell viability after treatment with analog (% viability) ([3]; 10 µM) [%] | IC50 (curcumin)/IC50 (analog) [1] | IC50 (curcumin)/IC50 (analog) [2] | IC50 (curcumin)/IC50 (analog) [4] | viability at 1 µM [3, 7] [%] | viability at 10 µM [3, 7] [%]
O=C1C(=Cc2cscn2)CCCC1=Cc1cscn1 [Compound 16] | 120 | 0.075 | 79 | 15.8 |  |  | 16.5 |  |  |  | 
O=C(/C=C/c1cncs1)/C=C/c1cncs1 [Compound 29] |  |  | 77 |  |  |  |  |  |  |  | 
O=C(/C=C/c1ccncc1F)/C=C/c1ccncc1F [Compound 36] |  |  | 25.6 |  |  |  |  |  |  |  | 
CN1CC(=Cc2cnn(C)c2)C(=O)C(=Cc2cnn(C)c2)C1 [Compound 3] | 76000 | 1870 | 100.9 | 97.8 |  |  | 0.03 | 0.0002 |  |  | 
Cn1nccc1C=C1CCCC(=Cc2ccnn2C)C1=O [Compound 14] | 260 | 0.73 | 88 | 71.4 |  |  | 7.6 | 0.41 |  |  | 
CC(C)n1ccnc1/C=C/C(=O)/C=C/c1nccn1C(C)C [Compound 20] | 89 | 0.054 | 35 | 11.4 | 418 |  |  |  | 25 |  | 
O=C(/C=C/c1cscn1)/C=C/c1cscn1 [Compound 25] | 94 | 0.096 | 89 | 13.7 |  |  |  |  |  |  | 
Cc1noc(C)c1/C=C/C(=O)/C=C/c1c(C)noc1C [Compound 30] |  |  | 67 |  |  |  |  |  |  |  | 
Cc1cc(C=C2CCCC(=Cc3cc(C)no3)C2=O)on1 [Compound 19] | 54 | 0.34 | 95 | 15.9 |  |  |  | 0.9 |  |  | 
CC(C)CCn1ccnc1/C=C/C(=O)/C=C/c1nccn1CCC(C)C [Compound 33] |  |  | 3.0 |  | 230 |  |  |  |  |  | 
CC(C)Cn1c(/C=C/C(=O)/C=C/c2nc3ccccc3n2CC(C)C)nc2ccccc21 [Compound 41] |  |  | 5.72 |  | 321 |  |  |  |  |  | 
CCC(CC)n1ccnc1/C=C/C(=O)/C=C/c1nccn1C(CC)CC [Compound 32] |  |  | 3.4 |  | 250 |  |  |  |  |  | 
Cc1cc(C=C2CN(C)CC(=Cc3cc(C)no3)C2=O)on1 [Compound 9] | 130 | 0.69 | 75.3 | 27.8 |  |  |  | 0.4 |  |  | 
CCC(CC)n1c(/C=C/C(=O)/C=C/c2nc3ccccc3n2C(CC)CC)nc2ccccc21 [Compound 45] |  |  |  |  | 696 |  |  |  | 15 |  | 
Cc1nc(/C=C/C(=O)/C=C/c2coc(C)n2)co1 [Compound 26] | 840 | 0.75 | 100 | 65.9 |  |  | 2.4 | 0.4 |  |  | 
CC(C)Cn1ccnc1C=C1CCCC(=Cc2nccn2CC(C)C)C1=O [Compound 12] | 470 | 0.36 | 100 | 94.5 |  |  | 4.2 | 0.8 |  |  | 
CCCCCCn1ccnc1/C=C/C(=O)/C=C/c1nccn1CCCCCC [Compound 35] |  |  | 6.1 |  | 590 |  |  |  | 18 |  | 
CN1CC(=Cc2cscn2)C(=O)C(=Cc2cscn2)C1 [Compound 6] | 800 | 0.43 | 72.0 | 12.0 | 817 |  | 2.5 | 0.7 | 13 |  | 

Source: US9499529B2 (California State University Fresno, priority 2013, dated 2016)
